The source of these data is US20080009546A1 (Chevron U.S.A. Inc., priority 2005, published 2008).

For the assay, the system named is C57/BL6 male mice. Description: Pentylenetetrazol (PTZ)-induced seizure/death model. As to conditions: for # of deaths within 30 min: 6 mice; for # of deaths within 30 min / PTZ-induced death: PTZ 100 mg/kg; for PTZ-induced death: 30 min observation. The format is in vivo, mouse. On the procedure:
Although the protection against death is the key endpoint, other effects of the compounds on PTZ-induced seizures were also assessed using multiple parameters. For the mice that did die within the 30 minute observation window, the time of death was also compared. […] The seizure occurrence rate, onset time and number of level 3 (L3) seizure (repetitive seizures but the animal can still stand) and level 4 (L4) seizure (repetitive seizures and the animal loses righting) are also analyzed. The MDT compound (30 mg/kg) treated groups show a certain degree of improvement compared to control. No data from MK801 or memantine were included because the seizures occurring under these treatments are totally different from the control or MDT injected groups due to side effects (“high jumping”).

In the case of `CC12CC3CC(C)(C1)CC(N)(C3)C2` [memantine, 1-amino-3,5-dimethyladamantane, reference compound], the Mortality rate worked out at 0.17 (10 mg/kg i.p.) and 0 (30 mg/kg i.p.). The “# of deaths within 30 min” value worked out at 1 (10 mg/kg i.p.) and 0 (30 mg/kg i.p.). Also, the PTZ-induced death entry by setting is: (10 and 30 mg/kg i.p.) “dose-dependent reduction in death”; (high dose 30 mg/kg i.p.) “full protection”.
